From patent US20230151025A1, “SUBSTITUTED THIAZOLOPYRIDINES, SALTS THEREOF AND THEIR USE AS HERBICIDALLY ACTIVE SUBSTANCES” (Bayer Aktiengesellschaft, priority 2020, published 2023)

Columns and labels:
Assay type in all cases: in vivo
[1] = system: Setaria viridis (SETVI); test: Herbicidal pre-emergence action (A), 1280 g/ha; conditions: visual grading after ca. 3 weeks vs untreated controls
How it was run: (§1)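 Pre-emergence greenhouse test: seeds sown in sandy loam pots, WP or EC formulations sprayed onto covering soil as aqueous suspension/emulsion with 0.5% additive at 600 l water/ha. Damage graded visually after ca. 3 weeks versus untreated controls, 0% = as control, 100% = plants dead.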

[2] = system: Stellaria media (STEME); test: Herbicidal pre-emergence action (A), 1280 g/ha; conditions: visual grading after ca. 3 weeks vs untreated controls
How it was run: as §1

[3] = system: Amaranthus retroflexus (AMARE); test: Herbicidal pre-emergence action (A), 1280 g/ha; conditions: visual grading after ca. 3 weeks vs untreated controls
How it was run: as §1

[4] = system: Digitaria sanguinalis (DIGSA); test: Herbicidal pre-emergence action (A), 1280 g/ha; conditions: visual grading after ca. 3 weeks vs untreated controls, 100% = plants have died off, 0% = as control plants
How it was run: as §1

[5] = system: Veronica persica (VERPE); test: Herbicidal pre-emergence action (A), 1280 g/ha; conditions: visual grading after ca. 3 weeks vs untreated controls
How it was run: as §1

[6] = system: Abutilon theophrasti (ABUTH); test: Herbicidal pre-emergence action (A), 1280 g/ha; conditions: visual grading after ca. 3 weeks vs untreated controls, 100% = plants have died off, 0% = as control plants
How it was run: as §1

[7] = system: Echinochloa crus-galli (ECHCG); test: Herbicidal pre-emergence action (A), 1280 g/ha; conditions: visual grading after ca. 3 weeks vs untreated controls, 100% = plants have died off, 0% = as control plants
How it was run: as §1

[8] = system: Lolium rigidum (LOLRI); test: Herbicidal pre-emergence action (A), 1280 g/ha; conditions: visual grading after ca. 3 weeks vs untreated controls, 100% = plants have died off, 0% = as control plants
How it was run: as §1

[9] = system: Kochia scoparia (KCHSC; Bassia scoparia); test: Herbicidal pre-emergence action (A), 1280 g/ha; conditions: visual grading after ca. 3 weeks vs untreated controls
How it was run: as §1

[10] = system: Poa annua (POAAN); test: Herbicidal pre-emergence action (A), 1280 g/ha; conditions: visual grading after ca. 3 weeks vs untreated controls, 100% = plants have died off, 0% = as control plants
How it was run: as §1

[11] = system: Stellaria media (STEME); test: Herbicidal post-emergence action (B), 1280 g/ha
How it was run: (§2)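 Post-emergence greenhouse test: weeds in sandy loam treated at the one-leaf stage, 2 to 3 weeks after sowing, with WP or EC formulations plus 0.5% additive at 600 l/ha water. Visual activity versus untreated controls after about 3 weeks (100% = dead, 0% = like control).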

[12] = system: Veronica persica (VERPE); test: Herbicidal post-emergence action (B), 1280 g/ha
How it was run: as §2

[13] = system: Matricaria inodora (MATIN); test: Herbicidal post-emergence action (B), 1280 g/ha; conditions: rated visually after about 3 weeks vs untreated controls
How it was run: as §2

[14] = system: Kochia scoparia (KCHSC; Bassia scoparia); test: Herbicidal post-emergence action (B), 1280 g/ha
How it was run: as §2

[15] = system: Setaria viridis (SETVI); test: Herbicidal pre-emergence action (C), 320 g/ha; conditions: ca. 3 weeks
Source text: (§3) ABUTH: Abutilon theophrasti AGSTE: Agrostis tenuis ALOMY: Alopecurus myosuroides AMARE Amaranthus retroflexus DIGSA: Digitaria sanguinalis ECHCG: Echinochloa crus-galli KCHSC: Kochia scoparia LOLRI: Lolium rigidum MATIN: Matricaria inodora POAAN: Poa annua POLCO: Polygonum convolvulus SETVI: Setaria viridis STEME: Stellaria media VERPE: Veronica persica VIOTR: Viola tricolor
(§4) Seeds of mono- and dicotyledonous weed plants and crop plants were sown, in plastic or organic planting pots, in sandy loam and covered with soil. The compounds according to the invention, formulated in the form of wettable powders (WP) or as emulsifiable concentrates (EC), were applied to the surface of the covering soil as aqueous suspension or emulsion, with the addition of 0.5% of an additive, at an application rate of 600 l of water/ha (converted).
(§5) Following treatment, the pots were placed in a greenhouse and kept under optimum growth conditions for the test plants. The visual grading of the damage to the test plants was carried out after ca. 3 weeks in comparison to untreated controls (herbicidal effect in percent (%): 100% effect=plants have died off, 0% effect=as control plants).
(§6) Tables C1 to C13 below show the effects of selected compounds of the general formula (I) according to table 1 on various harmful plants and an application rate corresponding to 320 g/ha obtained by the experimental procedure mentioned above.

[16] = system: Alopecurus myosuroides (ALOMY); test: Herbicidal pre-emergence action (C), 320 g/ha; conditions: ca. 3 weeks
Source text: as §3, §4, §5, §6

[17] = system: Amaranthus retroflexus (AMARE); test: Herbicidal pre-emergence action (C), 320 g/ha; conditions: ca. 3 weeks
Source text: as §3, §4, §5, §6

[18] = system: Veronica persica (VERPE); test: Herbicidal pre-emergence action (C), 320 g/ha; conditions: ca. 3 weeks
Source text: as §3, §4, §5, §6

[19] = system: Matricaria inodora (MATIN); test: Herbicidal pre-emergence action (C), 320 g/ha; conditions: ca. 3 weeks
Source text: as §3, §4, §5, §6

[20] = system: Echinochloa crus-galli (ECHCG); test: Herbicidal pre-emergence action (C), 320 g/ha; conditions: ca. 3 weeks
Source text: as §3, §4, §5, §6

[21] = system: Lolium rigidum (LOLRI); test: Herbicidal pre-emergence action (C), 320 g/ha; conditions: ca. 3 weeks
Source text: as §3, §4, §5, §6

[22] = system: Alopecurus myosuroides (ALOMY); test: Herbicidal pre-emergence action (A), 1280 g/ha; conditions: visual grading after ca. 3 weeks vs untreated controls, 100% = plants have died off, 0% = as control plants
How it was run: as §1

[23] = system: Matricaria inodora (MATIN); test: Herbicidal pre-emergence action (A), 1280 g/ha; conditions: visual grading after ca. 3 weeks vs untreated controls
How it was run: as §1

[24] = system: Setaria viridis (SETVI); test: Herbicidal post-emergence action (B), 1280 g/ha; conditions: rated visually after about 3 weeks vs untreated controls
How it was run: as §2

[25] = system: Alopecurus myosuroides (ALOMY); test: Herbicidal post-emergence action (B), 1280 g/ha; conditions: rated visually after about 3 weeks vs untreated controls
How it was run: as §2

[26] = system: Amaranthus retroflexus (AMARE); test: Herbicidal post-emergence action (B), 1280 g/ha; conditions: rated visually after about 3 weeks vs untreated controls
How it was run: as §2

[27] = system: Abutilon theophrasti (ABUTH); test: Herbicidal post-emergence action (B), 1280 g/ha; conditions: rated visually after about 3 weeks vs untreated controls
How it was run: as §2

[28] = system: Echinochloa crus-galli (ECHCG); test: Herbicidal post-emergence action (B), 1280 g/ha; conditions: rated visually after about 3 weeks vs untreated controls
How it was run: as §2

[29] = system: Lolium rigidum (LOLRI); test: Herbicidal post-emergence action (B), 1280 g/ha; conditions: one-leaf stage, rated after about 3 weeks vs untreated controls, 100% activity = the plants have died, 0% = like control plants
How it was run: as §2

[30] = system: Poa annua (POAAN); test: Herbicidal post-emergence action (B), 1280 g/ha; conditions: rated visually after about 3 weeks vs untreated controls
How it was run: as §2

[31] = system: Echinochloa crus-galli (ECHCG); test: Herbicidal post-emergence action (D), 320 g/ha; conditions: ca. 3 weeks
Source text: as §3
(§7) Seeds of mono- and dicotyledonous weed plants and crop plants were sown, in plastic or organic planting pots, in sandy loam, covered with soil and grown in a greenhouse under controlled growth conditions. 2 to 3 weeks after sowing, the test plants were sprayed in the single-leaf stage. The compounds according to the invention, formulated in form of wettable powders (WP) or as emulsifiable concentrates (EC), were sprayed onto the green plant parts as aqueous suspension or emulsion, with the addition of 0.5% of an additive, at an application rate of 600 l of water/ha (converted). The test plants were placed in the greenhouse for ca. 3 weeks under optimum growth conditions, and then the effect of the preparations was assessed visually in comparison with untreated controls (herbicidal effect in percent (%): 100% effect=plants have died off, 0% effect=as control plants).
(§8) Tables D1 to D13 below show the effects of selected compounds of the general formula (I) according to table 1 on various harmful plants and an application rate corresponding to 320 g/ha obtained by the experimental procedure mentioned above.

[32] = system: Setaria viridis (SETVI); test: Herbicidal post-emergence action (D), 320 g/ha; conditions: ca. 3 weeks
Source text: as §3, §7, §8

[33] = system: Amaranthus retroflexus (AMARE); test: Herbicidal post-emergence action (D), 320 g/ha; conditions: ca. 3 weeks
Source text: as §3, §7, §8

[34] = system: Veronica persica (VERPE); test: Herbicidal post-emergence action (D), 320 g/ha; conditions: ca. 3 weeks
Source text: as §3, §7, §8

Row | SMILES | herbicidal effect SETVI [1] | herbicidal effect STEME [2] | herbicidal effect AMARE [3] | herbicidal effect VERPE [5] | ABUTH, herbicidal effect in percent (%) [6] | ECHCG, herbicidal effect in percent (%) [7] | LOLRI, herbicidal effect in percent (%) [8] | herbicidal effect KCHSC [9] | POAAN, herbicidal effect in percent (%) [10] | herbicidal effect VERPE [12] | herbicidal effect KCHSC [14] | herbicidal effect SETVI [15] | herbicidal effect ALOMY [16] | herbicidal effect AMARE [17] | herbicidal effect MATIN [19] | herbicidal effect ECHCG [20] | herbicidal effect LOLRI [21] | ALOMY, herbicidal effect in percent (%) [22] | herbicidal effect MATIN [23] | herbicidal activity ALOMY [25] | further results
1 | Cc1cc2scnc2nc1-c1ccccc1C(F)(F)F [Example I-064] | 100% | 100% | 100% | 90% | 90% | 100% | 100% | 100% | 100% | 90% | 100% | – | – | – | – | – | – | – | – | – | DIGSA, herbicidal effect in percent (%) [4]: 100%; herbicidal effect STEME [11]: 100%; herbicidal activity MATIN [13]: 100%
2 | Fc1cccc(-c2nc3ncsc3cc2Cl)c1F [Example I-114] | 100% | 90% | 90% | 100% | 90% | 100% | 100% | 90% | 100% | 90% | 90% | 90% | 90% | 90% | 80% | 100% | 100% | 100% | 90% | 90% | herbicidal effect VERPE [18]: 80%; herbicidal activity SETVI [24]: 90%; herbicidal activity AMARE [26]: 90%; herbicidal activity ABUTH [27]: 90%; herbicidal activity ECHCG [28]: 90%
3 | Cc1cscc1-c1ccc2scnc2n1 [Example I-134] | 100% | 100% | – | – | – | – | 100% | – | 90% | – | – | – | – | – | – | – | – | 90% | 90% | – | herbicidal activity AMARE [26]: 90%; LOLRI, activity rated visually (%) [29]: 90%; herbicidal activity POAAN [30]: 90%
4 | Cc1sccc1-c1nc2ncsc2cc1Br [Example I-135] | 100% | 90% | 90% | 90% | – | 100% | 100% | 90% | 100% | 90% | 90% | 100% | 100% | 90% | 80% | 100% | 100% | 90% | 100% | 90% | herbicidal effect VERPE [18]: 80%; herbicidal effect ECHCG [31]: 80%; herbicidal activity AMARE [26]: 90%; herbicidal activity MATIN [13]: 90%; herbicidal activity POAAN [30]: 90%
5 | Clc1cc2scnc2nc1-c1ccsc1Cl [Example I-190] | 100% | 90% | 90% | 90% | 90% | 100% | 100% | 90% | 100% | 100% | 90% | 100% | 100% | 90% | 80% | 100% | 100% | 100% | 100% | 100% | herbicidal effect SETVI [32]: 80%; herbicidal effect AMARE [33]: 80%; herbicidal effect VERPE [34]: 80%; herbicidal effect ECHCG [31]: 90%; herbicidal effect STEME [11]: 90%; herbicidal activity ECHCG [28]: 100%; herbicidal activity POAAN [30]: 100%
